ChEMBL document CHEMBL1955753, “SAR-study on a new class of imidazo[1,2-a]pyridine-based inhibitors of 5-lipoxygenase” (Bioorg Med Chem Lett, 2012)

Legend:
[1] = target: T1, Polyunsaturated fatty acid 5-lipoxygenase (Homo sapiens, UniProt P09917); assay: Inhibition of 5-lipoxygenase in human polymorphonuclear leukocytes assessed as reduction in A23187 and AA-stimulated 5-LO product formation preincubated for 15 mins prior stimulation measured after 10 mins by HPLC analysis; format: cell-based
T1 sequence (P09917 whole entry): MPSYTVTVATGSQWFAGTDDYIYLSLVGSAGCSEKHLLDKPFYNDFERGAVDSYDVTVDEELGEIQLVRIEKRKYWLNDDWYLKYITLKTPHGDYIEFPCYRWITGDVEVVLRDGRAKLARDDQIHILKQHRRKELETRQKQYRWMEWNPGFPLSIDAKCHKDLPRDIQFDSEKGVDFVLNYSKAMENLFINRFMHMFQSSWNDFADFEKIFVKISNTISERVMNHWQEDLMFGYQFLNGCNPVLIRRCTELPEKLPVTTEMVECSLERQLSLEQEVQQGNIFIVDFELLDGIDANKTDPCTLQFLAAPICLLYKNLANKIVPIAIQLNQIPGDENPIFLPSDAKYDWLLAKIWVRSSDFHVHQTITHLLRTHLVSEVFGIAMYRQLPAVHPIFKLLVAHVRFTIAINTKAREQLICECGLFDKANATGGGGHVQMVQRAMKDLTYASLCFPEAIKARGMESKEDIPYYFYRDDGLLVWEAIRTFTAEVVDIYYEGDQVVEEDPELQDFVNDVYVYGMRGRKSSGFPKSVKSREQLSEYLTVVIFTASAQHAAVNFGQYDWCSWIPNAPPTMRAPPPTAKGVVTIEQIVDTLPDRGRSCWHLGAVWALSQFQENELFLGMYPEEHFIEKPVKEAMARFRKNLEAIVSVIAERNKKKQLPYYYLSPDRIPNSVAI

[2] = target: T1, Polyunsaturated fatty acid 5-lipoxygenase; assay: Inhibition of 5-lipoxygenase in S100 cell free fraction of human polymorphonuclear leukocytes assessed as reduction in 5-LO product formation preincubated for 15 mins measured after 10 mins by HPLC analysis; format: cell-based

IC50 [1]	IC50 [2]	SMILES
7.2 µM	7.7 µM	Cc1ccc2nc(-c3ccncc3)c(NC3CCCCC3)n2c1
1.53 µM	> 30 µM	Cc1ccc2nc(-c3ccc([N+](=O)[O-])cc3)c(NC3CCCCC3)n2c1
0.6 µM	–	Cc1ccc2nc(-c3ccc(N(C)C)cc3)c(NC3CCCCC3)n2c1

The remaining lines, values behind:

SMILES	IC50 [1]	IC50 [2]
Cc1ccc(-c2nc3cc(C)ccn3c2NC2CCCC2)cc1	0.9 µM	–
CCOc1ccc2[nH]c(=O)c(-c3nc4ccc(C)cn4c3NC3CCCCC3)cc2c1	1.8 µM	21.6 µM
Clc1ccc2nc(-c3ccc(N4CCOCC4)cc3)n(CC3CCCCC3)c2c1	1.2 µM	5.8 µM
CN(C)c1ccc(-c2nc3ccc(Cl)cc3n2CC2CCCCC2)cc1	0.5 µM	> 10 µM
